“Also recorded” adds a separate entry of the source.
Tests used:
[1] = tested on: neural stem cells in the sub-ventricular zone (SVZ) of the rat brain; assay: In vivo i.c.v. infusion, neural stem cells of the SVZ (BrdU, DCX immunohistochemistry)
Method: Male Long-Evans rats weighing 300-325 g (3-4 months old) were housed following a natural day-night cycle with food and water ad libitum. Prior to surgery, rats were anesthetized with equithesin (3 ml/kg, i.p.) and then placed on a stereotaxic frame. Using an electrode micromanipulator, the outlet of an osmotic micropump was implanted into the left cerebral ventricle following the coordinates D=3.4 mm, L=1.4 mm and AP=0.92 mm caudal to bregma. The tank of the osmotic pump was implanted in a subcutaneous pocket in the midscapular area of the back of the rat. After surgery, rats were placed on a heating blanket for recovery. During the whole procedure, the body temperature was monitored and kept stable at 37° C. SP-224 at 375 μM solubilized in polypropylene glycol/glycerol/distilled water (50/25/25) was perfused by i.c.v. route at 5 μl per hour for 2 weeks. Rats were sacrificed 3 weeks after the end of the brain infusion by intracardiac perfusion, first with a washing solution (NaCl 8 g/l, dextrose 4 g/l, sucrose 8 g/l, calcium chloride 0.23 g/l, sodium cacodylate anhydrous 0.25 g/l, in deionized water) and then with fixative cacodylate buffer (sucrose 40 g/l, paraformaldehyde 40 g/l, sodium cacodylate anhydrous 10.72 g/l, in deionized water). Brains were stored in fixative cacodylate buffer for an additional week before being embedded in paraffin. To study the neural stem cells proliferation rats were daily injected with a BrdU solution at 100 mg/kg. The first injection took place the day following the surgery and the last injection was performed the day previous to the euthanasia.
Brains were embedded in a paraffin block […] and cut into 20-μm thick slices.
This experiment was conducted to validate the results obtained in vitro and to assess the ability of the SP-224 to induce a neuronal differentiation of the neural stem cells present in the sub-ventricular zone (SVZ) of the rat brain. The SP-224 was administered in a solution at 375 μM by intra-cerebroventricular route for 2 weeks, corresponding to a total quantity of […] of SP-224 per rat. […]

P19 cells = assay: Neuronal and glial markers in differentiated P19 cells (immunocytochemistry); type: cell-based, mouse
Method: (§1) Mouse embryonic teratocarcinoma P19 cells were cultured at 37° C. in […] in Alpha Minimum Essential medium with ribonucleosides and deoxyribonucleosides containing bovine calf serum (7.5%) and fetal bovine serum (2.5%) on 13 mm diameter glass cover-slip. PC12 cells (rat pheochromocytoma neurons) were cultured at 37° C. and 5% CO2 in RPMI 1640 medium devoid of glutamine and supplemented with 10% fetal bovine serum and 5% horse serum on 13 mm diameter glass cover-slip. When cells reached 70% confluence, the medium was replaced fresh medium containing 90 μM SP-224. P19 and PC12 cells were then incubated for 2 days before SP224 was washed out and replaced by standard medium. The culture medium was changed every 2 days for 5 days or every 2 days for 30 days before cells were fixed for immunocytochemistry. The NT2 cells were treated for 5 days and washed-out for 10 days.
P19 cells were fixed with methanol at −20° C. for 15 minutes before being permeabilized for 30 minutes at room temperature with 1×PBS pH=7.4 containing 0.1% Triton 100×. Cell were incubated for 24 hours at 4° C. with antibodies raised against GAP43 (1/1000), DCX (1/3000), βIII Tubulin (1/500), synaptophysin (1/200), MAP2 (1/500), ChAT (1/2000), GFAP (1/1000) or CNPase (1/250). […] Cells nucleus was counterstained using DAPI or ethidium bromide.
The ability of SP-224 to induce the neuronal differentiation of the P19 cells was assessed as follows. P19 cells were treated for 2 days followed by a 5 days wash out period (FIG. 26). The neuronal markers expression was also studied after 28 days (FIG. 27) in order to in order to verify whether the expression observed at 5 days was temporary or permanent. No neuronal marker was observed on the control except for the synaptophysin for which the staining was, however, very weak (FIG. 26C). […] After 28 days of wash out the neuronal differentiation is even more important.

[2] = tested on: Mouse embryonic teratocarcinoma P19 cells; assay: Neurites-like sprouting in P19 cells; type: cell-based; settings: 90 μM, 2 days, then 5 days wash-out
Method: as §1
(§2) The above-referenced cell lines were used because they have been extensively used as a model of neuronal differentiation (Houldsworth et al., 2002; Chou et al., 2003; Das et al., 2004). To induce the sprouting, cells were plated in 6-well plates and treated for 2 days (P19) or 5 days (PC12 and NT2) with 90 μM SP-224 before being washed with fresh medium and cultured for 5 (P19) or 10 (PC12 and NT2) more days. […] Meantime, we observed a growth arrest of the treated-cells. […]

[3] = tested on: PC12 rat pheochromocytoma cells; assay: Neurites-like sprouting in PC12 cells; type: cell-based; settings: 90 μM, then wash-out
Method: as §1, §2

NT2 human neuronal cells = assay: Neurites-like sprouting in NT2 cells; type: cell-based; settings: 90 μM, 5 days, then 10 days wash-out
Method: as §1, §2

[4] = 375 μM i.c.v., 5 μl per hour for 2 weeks, sacrifice 3 weeks later
[5] = 2 days treatment, 28-30 days wash out

**Q.** What does the source list for `CC1CCC2(NC1)OC1CC3C4CC=C5CC(O)CCC5(C)C4CCC3(C)C1C2C` [SP224, (20α)-25ζ-methyl-(22R,26)-azacyclofurost-5-en-3ζ-ol]?
**A.** toxic effect on the brain tissue ([1]; 375 μM i.c.v. for 2 weeks): without any apparent toxic effect on the brain tissue; BrdU immunostaining, neural stem cell self-renewal/proliferation in the SVZ [1, 4]: able to induce a self-renewal of the neural stem cells in the SVZ; also recorded: dramatic increase of the BrdU; expression of early neuronal marker DCX in the SVZ cells [1, 4]: induced the expression of the early neuronal marker DCX; astrocyte marker GFAP / differentiation into astrocytes (P19 cells; 90 μM 2 days, 5 days SP-224 free medium): no positive GFAP signal was detected; also recorded: did not trigger the differentiation of the P19 cells into astrocytes; expression of ChAT (P19 cells; 90 μM 2 days, 5 days wash out): strong expression; expression of MAP2 (P19 cells; 90 μM 2 days, 5 days wash out): strong expression; expression of migrating neuroblasts marker DCX (P19 cells; 90 μM 2 days, 5 days wash out): strongly expressed; expression of synaptophysin (P19 cells; 90 μM 2 days, 5 days wash out): strong expression; expression of βIII tubulin (P19 cells; 90 μM 2 days, 5 days wash out): strong expression; network of axons and dendrites (βIII tubulin staining) (P19 cells; [5]): dramatically extended; synaptophysin labeling (P19 cells; [5]): established synaptic connections; sprouting of P19 cells [2]: significant sprouting; sprouting of PC12 cells [3]: significant sprouting; sprouting of NT2 cells (NT2 human neuronal cells): significant sprouting

From patent publication US20060009433A1, “Neuroprotective spirostenol pharmaceutical compositions” (priority 2003, published 2006)
